Data taken from ChEMBL document CHEMBL4507272 (2021).

Columns and labels:
Details in all cases: Compound concentration 10.0 uM
[1] = biological target: T1, GABA-A receptor; anion channel (Rattus norvegicus) (UniProt O09028+P15431+P18506+P18508+P19969+P20236+P23574+P23576+P28471+P28473+P30191+P62813+P63079+P63138+Q91ZM7+Q9ES14)
[2] = biological target: Histamine H4 receptor (Homo sapiens) (UniProt Q9H3N8)
[3] = biological target: 5-hydroxytryptamine receptor 1A (Homo sapiens) (UniProt P08908)
[4] = biological target: D(2) dopamine receptor (Homo sapiens) (UniProt P14416)
[5] = biological target: Mu-type opioid receptor (Homo sapiens) (UniProt P35372)
[6] = biological target: Alpha-2C adrenergic receptor (Homo sapiens) (UniProt P18825)
[7] = biological target: Delta-type opioid receptor (Homo sapiens) (UniProt P41143)
[8] = biological target: D(3) dopamine receptor (Homo sapiens) (UniProt P35462)
[9] = biological target: 5-hydroxytryptamine receptor 1B (Homo sapiens) (UniProt P28222)
[10] = biological target: 5-hydroxytryptamine receptor 7 (Homo sapiens) (UniProt P34969)
[11] = biological target: Muscarinic acetylcholine receptor M4 (Homo sapiens) (UniProt P08173)
[12] = biological target: 5-hydroxytryptamine receptor 3A (Homo sapiens) (UniProt P46098)
[13] = biological target: Sigma intracellular receptor 2 (Homo sapiens) (UniProt Q5BJF2)
[14] = biological target: Histamine H1 receptor (Homo sapiens) (UniProt P35367)
[15] = biological target: Beta-1 adrenergic receptor (Homo sapiens, UniProt P08588)
[16] = biological target: Muscarinic acetylcholine receptor M2 (Homo sapiens) (UniProt P08172)
[17] = biological target: 5-hydroxytryptamine receptor 5A (Homo sapiens) (UniProt P47898)
[18] = biological target: 5-hydroxytryptamine receptor 2A (Homo sapiens) (UniProt P28223)
[19] = biological target: D(4) dopamine receptor (Homo sapiens) (UniProt P21917)
[20] = biological target: D(1B) dopamine receptor (Homo sapiens) (UniProt P21918)
[21] = biological target: Muscarinic acetylcholine receptor M3 (Homo sapiens) (UniProt P20309)
[22] = biological target: Alpha-2B adrenergic receptor (Homo sapiens) (UniProt P18089)
[23] = biological target: Sodium-dependent dopamine transporter (Homo sapiens) (UniProt Q01959)
[24] = biological target: 5-hydroxytryptamine receptor 2C (Homo sapiens) (UniProt P28335)
[25] = biological target: Histamine H2 receptor (Homo sapiens) (UniProt P25021)
[26] = biological target: T1, GABA-A receptor; anion channel (Rattus norvegicus); remark: listed apart in the source
[27] = biological target: Alpha-1A adrenergic receptor (Homo sapiens) (UniProt P35348)
[28] = biological target: Kappa-type opioid receptor (Homo sapiens) (UniProt P41145)
[29] = biological target: Muscarinic acetylcholine receptor M5 (Homo sapiens) (UniProt P08912)
[30] = biological target: Beta-2 adrenergic receptor (Homo sapiens) (UniProt P07550)
[31] = biological target: Beta-3 adrenergic receptor (Homo sapiens) (UniProt P13945)
[32] = biological target: Sodium-dependent noradrenaline transporter (Homo sapiens) (UniProt P23975)
[33] = biological target: Sodium-dependent serotonin transporter (Homo sapiens) (UniProt P31645)
[34] = biological target: 5-hydroxytryptamine receptor 2B (Homo sapiens) (UniProt P41595)
[35] = biological target: Alpha-2A adrenergic receptor (Homo sapiens) (UniProt P08913)
[36] = biological target: Alpha-1D adrenergic receptor (Homo sapiens) (UniProt P25100)
[37] = biological target: Alpha-1B adrenergic receptor (Homo sapiens) (UniProt P35368)
[38] = biological target: 5-hydroxytryptamine receptor 6 (Homo sapiens) (UniProt P50406)

Sequence of Alpha-1B adrenergic receptor (Homo sapiens) (P35368 whole entry): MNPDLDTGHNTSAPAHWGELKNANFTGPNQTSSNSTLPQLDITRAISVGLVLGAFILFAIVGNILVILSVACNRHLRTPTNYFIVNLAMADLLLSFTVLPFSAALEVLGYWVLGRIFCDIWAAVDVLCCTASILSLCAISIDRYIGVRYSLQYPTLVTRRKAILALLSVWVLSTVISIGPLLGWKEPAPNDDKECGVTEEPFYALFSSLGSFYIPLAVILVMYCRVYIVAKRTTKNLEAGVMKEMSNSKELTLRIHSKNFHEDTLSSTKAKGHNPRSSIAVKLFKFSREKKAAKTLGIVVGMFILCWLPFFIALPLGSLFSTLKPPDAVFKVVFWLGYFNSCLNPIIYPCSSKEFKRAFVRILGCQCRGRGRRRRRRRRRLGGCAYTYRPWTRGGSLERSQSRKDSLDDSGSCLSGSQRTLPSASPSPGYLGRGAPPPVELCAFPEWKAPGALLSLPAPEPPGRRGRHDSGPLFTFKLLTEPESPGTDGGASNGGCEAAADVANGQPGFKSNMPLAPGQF
Sequence of Muscarinic acetylcholine receptor M2 (Homo sapiens) (P08172 whole entry): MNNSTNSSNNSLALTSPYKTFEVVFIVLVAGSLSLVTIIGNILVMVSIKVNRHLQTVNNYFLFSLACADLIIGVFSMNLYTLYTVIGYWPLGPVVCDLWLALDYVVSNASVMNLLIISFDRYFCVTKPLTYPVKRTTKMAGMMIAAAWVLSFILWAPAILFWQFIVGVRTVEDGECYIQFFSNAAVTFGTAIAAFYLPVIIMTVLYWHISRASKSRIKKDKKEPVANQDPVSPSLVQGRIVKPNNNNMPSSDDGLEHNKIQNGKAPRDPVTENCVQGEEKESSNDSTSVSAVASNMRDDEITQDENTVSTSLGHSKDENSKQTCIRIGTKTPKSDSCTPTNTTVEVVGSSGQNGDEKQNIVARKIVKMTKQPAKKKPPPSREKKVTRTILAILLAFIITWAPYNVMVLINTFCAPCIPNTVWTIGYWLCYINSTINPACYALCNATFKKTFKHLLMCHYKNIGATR
Sequence of D(3) dopamine receptor (Homo sapiens) (P35462 whole entry): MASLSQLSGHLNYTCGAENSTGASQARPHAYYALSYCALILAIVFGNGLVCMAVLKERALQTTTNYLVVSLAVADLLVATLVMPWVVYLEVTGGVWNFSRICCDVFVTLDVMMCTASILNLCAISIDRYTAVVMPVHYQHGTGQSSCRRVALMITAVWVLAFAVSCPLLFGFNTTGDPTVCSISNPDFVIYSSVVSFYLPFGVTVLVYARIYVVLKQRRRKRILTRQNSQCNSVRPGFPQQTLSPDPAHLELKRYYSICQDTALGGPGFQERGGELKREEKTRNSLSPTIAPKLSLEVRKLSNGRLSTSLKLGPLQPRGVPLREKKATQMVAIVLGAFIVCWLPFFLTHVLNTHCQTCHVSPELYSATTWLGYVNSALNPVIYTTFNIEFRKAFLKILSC
Sequence of Histamine H1 receptor (Homo sapiens) (P35367 whole entry): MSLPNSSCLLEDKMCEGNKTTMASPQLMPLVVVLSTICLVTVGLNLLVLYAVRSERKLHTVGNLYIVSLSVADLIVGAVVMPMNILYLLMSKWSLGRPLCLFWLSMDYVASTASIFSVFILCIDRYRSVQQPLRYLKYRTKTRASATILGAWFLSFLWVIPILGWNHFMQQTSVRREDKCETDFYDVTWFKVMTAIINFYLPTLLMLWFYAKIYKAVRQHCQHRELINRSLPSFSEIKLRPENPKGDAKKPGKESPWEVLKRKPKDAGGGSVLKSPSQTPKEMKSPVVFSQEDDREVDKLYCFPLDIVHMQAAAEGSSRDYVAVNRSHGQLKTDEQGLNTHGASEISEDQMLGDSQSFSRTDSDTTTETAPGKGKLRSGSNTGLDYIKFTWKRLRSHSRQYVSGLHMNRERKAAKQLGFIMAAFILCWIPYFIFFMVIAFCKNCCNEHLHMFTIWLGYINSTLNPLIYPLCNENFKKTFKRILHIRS
Sequence of Beta-3 adrenergic receptor (Homo sapiens) (P13945 whole entry, looked up): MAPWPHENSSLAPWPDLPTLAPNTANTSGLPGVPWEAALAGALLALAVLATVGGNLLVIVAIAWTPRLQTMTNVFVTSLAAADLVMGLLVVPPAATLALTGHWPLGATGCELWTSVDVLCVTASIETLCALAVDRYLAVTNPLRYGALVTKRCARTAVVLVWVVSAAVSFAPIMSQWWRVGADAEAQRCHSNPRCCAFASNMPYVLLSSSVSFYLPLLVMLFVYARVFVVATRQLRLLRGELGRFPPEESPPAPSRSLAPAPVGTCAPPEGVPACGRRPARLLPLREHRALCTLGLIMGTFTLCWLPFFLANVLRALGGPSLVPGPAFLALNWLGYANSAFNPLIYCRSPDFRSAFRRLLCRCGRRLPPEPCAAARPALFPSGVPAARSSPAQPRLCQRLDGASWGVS
Sequence of Sodium-dependent serotonin transporter (Homo sapiens) (P31645 whole entry, looked up): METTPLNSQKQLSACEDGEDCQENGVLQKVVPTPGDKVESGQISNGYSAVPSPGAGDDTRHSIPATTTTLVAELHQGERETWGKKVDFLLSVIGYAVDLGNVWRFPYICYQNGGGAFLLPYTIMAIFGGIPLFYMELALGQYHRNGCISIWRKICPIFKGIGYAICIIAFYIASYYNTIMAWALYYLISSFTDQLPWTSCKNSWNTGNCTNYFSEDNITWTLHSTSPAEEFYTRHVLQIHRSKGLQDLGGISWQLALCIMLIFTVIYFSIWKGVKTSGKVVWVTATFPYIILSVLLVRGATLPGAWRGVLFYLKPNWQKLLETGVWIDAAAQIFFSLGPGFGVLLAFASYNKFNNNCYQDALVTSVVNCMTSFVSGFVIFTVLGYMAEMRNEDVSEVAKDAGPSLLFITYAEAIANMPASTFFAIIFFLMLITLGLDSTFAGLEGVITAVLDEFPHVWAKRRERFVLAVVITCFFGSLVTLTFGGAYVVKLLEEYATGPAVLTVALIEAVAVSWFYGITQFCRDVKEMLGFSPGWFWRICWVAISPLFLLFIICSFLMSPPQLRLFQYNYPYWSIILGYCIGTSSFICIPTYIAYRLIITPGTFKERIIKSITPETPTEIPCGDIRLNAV
Sequence of Delta-type opioid receptor (Homo sapiens) (P41143 whole entry): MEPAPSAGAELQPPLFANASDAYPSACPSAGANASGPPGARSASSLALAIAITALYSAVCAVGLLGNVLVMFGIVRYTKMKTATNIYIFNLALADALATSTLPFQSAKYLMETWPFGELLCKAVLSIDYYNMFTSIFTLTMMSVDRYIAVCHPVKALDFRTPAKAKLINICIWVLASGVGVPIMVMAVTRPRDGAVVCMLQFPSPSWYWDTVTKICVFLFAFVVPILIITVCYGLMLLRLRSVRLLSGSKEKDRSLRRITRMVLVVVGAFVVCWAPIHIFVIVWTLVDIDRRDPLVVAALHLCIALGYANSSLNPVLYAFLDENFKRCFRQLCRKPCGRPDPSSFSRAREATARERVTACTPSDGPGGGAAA
Sequence of Sodium-dependent dopamine transporter (Homo sapiens) (Q01959 whole entry): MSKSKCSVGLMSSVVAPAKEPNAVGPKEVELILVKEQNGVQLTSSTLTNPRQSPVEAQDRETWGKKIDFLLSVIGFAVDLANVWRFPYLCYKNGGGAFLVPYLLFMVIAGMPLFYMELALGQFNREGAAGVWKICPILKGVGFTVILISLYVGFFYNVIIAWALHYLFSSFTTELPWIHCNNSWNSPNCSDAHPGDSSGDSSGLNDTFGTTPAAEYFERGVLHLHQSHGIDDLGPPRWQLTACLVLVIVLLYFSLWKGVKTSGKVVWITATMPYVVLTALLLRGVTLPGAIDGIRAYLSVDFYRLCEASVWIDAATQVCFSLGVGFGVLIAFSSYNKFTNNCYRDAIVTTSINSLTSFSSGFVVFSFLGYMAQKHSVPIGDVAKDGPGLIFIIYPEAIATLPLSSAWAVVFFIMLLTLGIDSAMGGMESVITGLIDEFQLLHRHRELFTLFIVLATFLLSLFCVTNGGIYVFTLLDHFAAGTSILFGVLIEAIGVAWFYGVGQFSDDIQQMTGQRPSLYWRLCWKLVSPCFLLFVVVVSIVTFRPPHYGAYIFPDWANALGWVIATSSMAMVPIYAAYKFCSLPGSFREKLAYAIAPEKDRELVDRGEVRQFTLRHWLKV
Sequence of Muscarinic acetylcholine receptor M4 (Homo sapiens) (P08173 whole entry): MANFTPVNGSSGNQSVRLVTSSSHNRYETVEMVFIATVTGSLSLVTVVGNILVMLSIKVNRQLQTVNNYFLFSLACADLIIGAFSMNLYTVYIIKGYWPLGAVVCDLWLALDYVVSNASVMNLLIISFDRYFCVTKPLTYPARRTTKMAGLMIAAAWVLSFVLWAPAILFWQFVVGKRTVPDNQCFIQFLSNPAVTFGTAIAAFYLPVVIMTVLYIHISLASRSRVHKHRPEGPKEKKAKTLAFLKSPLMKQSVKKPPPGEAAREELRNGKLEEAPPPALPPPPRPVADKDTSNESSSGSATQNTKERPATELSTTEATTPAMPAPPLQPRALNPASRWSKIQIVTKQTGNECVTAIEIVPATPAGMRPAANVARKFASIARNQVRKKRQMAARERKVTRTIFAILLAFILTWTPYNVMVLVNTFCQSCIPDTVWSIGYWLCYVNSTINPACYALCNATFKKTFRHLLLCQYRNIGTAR
Sequence of Alpha-2C adrenergic receptor (Homo sapiens) (P18825 whole entry): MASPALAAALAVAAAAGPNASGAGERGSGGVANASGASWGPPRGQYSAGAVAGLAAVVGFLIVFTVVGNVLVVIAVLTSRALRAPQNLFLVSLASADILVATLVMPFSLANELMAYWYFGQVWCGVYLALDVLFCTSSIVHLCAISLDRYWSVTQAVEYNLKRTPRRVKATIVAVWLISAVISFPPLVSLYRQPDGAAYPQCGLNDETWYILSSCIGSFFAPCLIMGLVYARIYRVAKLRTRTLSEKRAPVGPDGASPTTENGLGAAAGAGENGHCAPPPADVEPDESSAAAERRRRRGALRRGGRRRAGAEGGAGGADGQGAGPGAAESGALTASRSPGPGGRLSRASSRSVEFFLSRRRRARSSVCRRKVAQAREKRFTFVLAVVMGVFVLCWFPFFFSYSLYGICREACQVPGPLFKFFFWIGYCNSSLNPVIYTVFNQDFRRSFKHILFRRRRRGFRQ

inhibition [1]: 14.7%
inhibition [2]: -0.78%
inhibition [3]: 3.63%
inhibition [4]: -1.53%
inhibition [5]: 2.02%
inhibition [6]: 11%
inhibition [7]: 4.95%
inhibition [8]: -6.43%
inhibition [9]: 6.75%
inhibition [10]: 13.9%
inhibition [11]: 2.88%
inhibition [12]: 23.7%
inhibition [13]: 20.9%
inhibition [14]: 5.28%
inhibition [15]: 8.09%
inhibition [16]: -9.21%
inhibition [17]: 8.86%
inhibition [18]: -6.25%
inhibition [19]: 5.84%
inhibition [20]: 5.12%
inhibition [21]: 27.3%
inhibition [22]: 11.8%
inhibition [23]: 1.88%
inhibition [24]: 29%
inhibition [25]: 3.4%
inhibition [26]: -5.84%
inhibition [27]: -5.26%
inhibition [28]: -8.67%
inhibition [29]: 2.19%
inhibition [30]: 21.6%
inhibition [31]: 17.2%
inhibition [32]: -8.06%
inhibition [33]: 2.85%
inhibition [34]: 15.8%
inhibition [35]: -8.89%
inhibition [36]: 7.7%
inhibition [37]: -8.1%
inhibition [38]: 14.9%
SMILES: CC(=O)C1=C(C)N(c2cccc(C(F)(F)F)c2)C(=O)N[C@H]1c1ccc(C#N)nc1
